Reference: patent publication US11529350B2, “Tyrosine kinase non-receptor 1 (TNK1) inhibitors and uses thereof” (Sumitomo Pharma Oncology, Inc., priority 2019, dated 2022)

How the values were obtained:
[1] = tested on: phospho-STAT5 in L540 cells; test: In vitro pSTAT5 assay (ELISA) in L540 cells; type: cell-based; settings: Homo sapiens, L-540, 24 hours, normalized to cell viability, read-out: P-STAT5 Assay IC50
Procedure: The L540 cell line harbors a truncating mutation in the C-terminal regulatory region of the protein. As a consequence, TNK1 in L540 cells is constitutively active in phosphorylating key proteins, including STAT5. In TNK1 wild-type conditions (e.g., K562 CML cells), STAT5 phosphorylation is achieved in a TNK1-independent fashion. As such, reductions in phospho-STAT5 signal specific to the L540 cells are a good readout of TNK1 inhibitor function.
Methods: The in vitro pSTAT5 assay was performed with STAT5 AB (pY964/699) SimpleStep ELISA Kit (Abcam No. ab176656) according to the manufacturer's protocol. Briefly, L540 cells were grown in RPMI1640 media under standard culture conditions (10% FBS with penicillin/streptomycin). To assess test compound effects, cells were plated in 96 well plates (250,000 cells/mL) and allowed to grow overnight. Cells were subsequently treated with varying concentrations of test compound for 24 hours, before being harvested and interrogated with the STAT5 AB (pY964/699) SimpleStep ELISA Kit according to the manufacturer's protocol. Phospho-STAT5 signal was normalized to cell viability, as assessed by the CellTiter-Glo assay (Promega, Cat. No. G7570) on treated cells. TNK1 inhibitor IC50s were determined using Graphpad Prism software on normalized phospho-STAT5 measurements.

TNK1 = target: T1, TNK1 (Homo sapiens, UniProt Q13470); test: RBC HotSpot Kinase Assay; type: biochemical; design: purchased Reaction Biology Corp., Malvern, Pa; settings: ATP 10 μM
T1 sequence (Q13470 1-666): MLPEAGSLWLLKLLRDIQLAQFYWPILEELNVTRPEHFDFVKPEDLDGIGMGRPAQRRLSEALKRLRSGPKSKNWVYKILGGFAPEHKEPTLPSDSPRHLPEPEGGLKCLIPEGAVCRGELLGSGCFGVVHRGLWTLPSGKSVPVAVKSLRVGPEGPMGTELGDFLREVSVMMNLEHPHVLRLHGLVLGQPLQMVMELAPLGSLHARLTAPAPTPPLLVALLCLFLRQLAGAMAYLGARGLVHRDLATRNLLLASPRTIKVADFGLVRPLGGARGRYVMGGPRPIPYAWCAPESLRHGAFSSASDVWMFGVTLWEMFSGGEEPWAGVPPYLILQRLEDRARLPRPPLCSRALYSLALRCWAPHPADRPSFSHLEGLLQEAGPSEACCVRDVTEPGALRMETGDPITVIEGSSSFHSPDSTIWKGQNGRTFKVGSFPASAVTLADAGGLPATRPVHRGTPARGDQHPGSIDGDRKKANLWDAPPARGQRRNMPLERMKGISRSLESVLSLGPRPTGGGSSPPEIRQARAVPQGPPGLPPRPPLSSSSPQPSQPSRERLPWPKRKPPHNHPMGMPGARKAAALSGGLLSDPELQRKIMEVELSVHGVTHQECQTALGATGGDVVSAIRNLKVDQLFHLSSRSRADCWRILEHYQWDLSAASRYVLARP
Procedure: The RBC HotSpot Kinase assay (Reaction Biology Corp., Malvern, Pa.) was used to evaluate the ability of test compounds to modulate (e.g., inhibit) the enzymatic activity of human TNK1 (UniProt Accession No. Q13470) in the following reaction:
Reagent: Base Reaction buffer; 20 mM Hepes (pH 7.5), 10 mM MgCl2, 1 mM EGTA, 0.02% Brij35, 0.02 mg/ml BSA, 0.1 mM Na3VO4, 2 mM DTT, 1% DMSO. Required cofactors were added individually to each kinase reaction.
Compound handling: Test compounds were dissolved in 100% DMSO to specific concentration. The serial dilution was conducted by Integra Viaflo Assist in DMSO.
1. Prepared substrate (peptide substrate, poly[Glu:Tyr] (4:1), 0.2 mg/ml; ATP 10 μM) in freshly prepared Reaction Buffer;
2. Delivered any required cofactors to the substrate solution;
3. Delivered kinase (TNK1) into the substrate solution and gently mixed;
4. Delivered compounds in 100% DMSO into the kinase reaction mixture by Acoustic technology (Echo550; nanoliter range), incubated for 20 minutes at room temperature;
5. Delivered ^33P-ATP (specific activity 10 μCi/μl) into the reaction mixture to initiate the reaction;
6. Incubated for 2 hours at room temperature;
7. Detected radioactivity by filter-binding method;
8. Kinase activity data were expressed as the percent remaining kinase activity in test samples compared to vehicle (dimethyl sulfoxide) reactions. IC50 values and curve fits were obtained using Prism (GraphPad Software).

| SMILES | IC50 [1] | IC50 (TNK1) |
| --- | --- | --- |
| COc1cc(N2CCN(C)CC2)c(Cl)cc1Nc1ncc(Cl)c(Nc2cccnc2N2CCCC2=O)n1 [Example No. 13, 1-(3-((5-chloro-2-((5-chloro-2-methoxy-4-(4-methylpiperazin-1-yl)phenyl)amino)pyrimidin-4-yl)amino)pyridin-2-yl)pyrrolidin-2-one] | < 5 nM | < 5 nM |
| CN1CCN(c2c(Cl)cc(Nc3ncc(Cl)c(Nc4cccnc4N4CCCC4=O)n3)c3ccccc23)CC1 [Example No. 18, 1-(3-((5-chloro-2-((3-chloro-4-(4-methylpiperazin-1-yl)naphthalen-1-yl)amino)pyrimidin-4-yl)amino)pyridin-2-yl)pyrrolidin-2-one] | < 5 nM | < 5 nM |
| COc1cc(N2CCN(C)CC2)c(Cl)cc1Nc1ncc(Cl)c(Nc2cccnc2N2CCNC2=O)n1 [Example No. 21, 1-(3-((5-chloro-2-((5-chloro-2-methoxy-4-(4-methylpiperazin-1-yl)phenyl)amino)pyrimidin-4-yl)amino)pyridin-2-yl)imidazolidin-2-one] | < 5 nM | < 5 nM |
| CN1CCN(c2ccc(Nc3ncc(Cl)c(Nc4cccnc4N4CCCC4=O)n3)cc2)CC1 [compound 1, 1-(3-((5-chloro-2-((4-(4-methylpiperazin-1-yl)phenyl)amino)pyrimidin-4-yl)amino)pyridin-2-yl)pyrrolidin-2-one] | < 5 nM | < 5 nM |
| COc1cc(N2CCN(C)CC2)ccc1Nc1ncc(Cl)c(Nc2cccnc2N2CCCC2=O)n1 [compound 2, 1-(3-((5-chloro-2-((2-methoxy-4-(4-methylpiperazin-1-yl)phenyl)amino)pyrimidin-4-yl)amino)pyridin-2-yl)pyrrolidin-2-one] | < 5 nM | < 5 nM |
| CCOc1cc(N2CCN(C)CC2)ccc1Nc1ncc(Cl)c(Nc2cccnc2N(C)C)n1 [compound 3, 5-chloro-N^4-(2-(dimethylamino)pyridin-3-yl)-N^2-(2-ethoxy-4-(4-methylpiperazin-1-yl)phenyl)pyrimidine-2,4-diamine] | 5 to 50 nM | 15 to 50 nM |
| CC(C)Oc1cc(N2CCN(C)CC2)ccc1Nc1ncc(Cl)c(Nc2cccnc2N(C)C)n1 [compound 4, 5-chloro-N^4-(2-(dimethylamino)pyridin-3-yl)-N^2-(2-isopropoxy-4-(4-methylpiperazin-1-yl)phenyl)pyrimidine-2,4-diamine] | > 50 nM | 15 to 50 nM |
| CN1CCN(c2ccc(Nc3ncc(Cl)c(Nc4cccnc4N(C)C)n3)cc2)CC1 [compound 5, 5-chloro-N^4-(2-(dimethylamino)pyridin-3-yl)-N^2-(4-(4-methylpiperazin-1-yl)phenyl)pyrimidine-2,4-diamine] | < 5 nM | 5 to 15 nM |
| COc1cc(N2CCN(C)CC2)c(C)cc1Nc1ncc(Cl)c(Nc2cccnc2N2CCNC2=O)n1 [compound 9, 1-(3-((5-chloro-2-((2-methoxy-5-methyl-4-(4-methylpiperazin-1-yl)phenyl)amino)pyrimidin-4-yl)amino)pyridin-2-yl)imidazolidin-2-one] | < 5 nM | < 5 nM |
| COc1cc(N2CCN(C)CC2)c(C)cc1Nc1ncc(Br)c(Nc2cccnc2N(C)C)n1 [compound 10, 5-bromo-N^4-(2-(dimethylamino)pyridin-3-yl)-N^2-(2-methoxy-5-methyl-4-(4-methylpiperazin-1-yl)phenyl)pyrimidine-2,4-diamine] | < 5 nM | < 5 nM |
